For 64 compounds, melting point results are on record in a melting point compilation (Tetko et al.; mined from patent text by program, amines drawn as free bases though some values may be those of a salt).

`CCc1cc(O)c2c(ccc3nc[nH]c32)n1` displayed a melting point of 309 to 317 °C.
Then `CC(C)c1ccc(S(=O)(=O)Nc2ccc(C(F)(F)F)cc2I)cc1`, with 101 °C; and `OCc1cn(-c2ccccc2)nc1-c1ccc(Cl)cc1`, with 141 to 142 °C.
Then `COC=C(C(=O)OC)N(C)c1cc(-c2cccc(OC)c2)ncn1`, with 87 to 90 °C; and `CC(C)(C)OC(=O)N[C@H]1CCC(=O)C1`, with 97 to 98 °C; and `O=C(Nc1ccc(-n2nc(C(F)(F)F)cc2C(F)(F)F)cc1)c1cccc(I)c1`, with 192 to 193 °C.
The figure for `Oc1cccc(-c2n[nH]c3c2Cc2ccccc2-3)c1` is 302 to 304 °C; for `CS(=O)(=O)OCCNc1ccc(C(F)(F)F)cc1[N+](=O)[O-]` it is 68 to 70 °C; for `COC(=O)CCCCc1cccnc1CNC=O` it is 43 to 45 °C.
In turn, `BrCCOc1ccc2[nH]c3ccccc3c2c1` came in with a melting point of 135 to 136 °C.
Then `C=CCNC(=O)C1=Cc2c1ccc(OC)c2OC`, with 98 to 99 °C.
The figure for `COC(=O)CCc1cc(C(C)(C)C)c2oc(-c3ccc(-c4nc5cc(CCC(=O)OC)cc(C(C)(C)C)c5o4)s3)nc2c1` is 144 to 145 °C; for `CC(C)(C)c1cc(Nc2ccc(C=CC(=O)O)cc2)cc(C(C)(C)C)c1O` it is 199 to 200 °C; for `NNC(=O)C=Cc1cc2ccccc2o1` it is 173 to 174 °C.
The figure for `CCN1CC(NC(=O)c2ccc(F)cc2)CN1CC` is 114 to 116 °C; for `Cc1cn(C2OC(COC(=O)c3ccccc3)C(OC(=O)c3ccccc3)C2OC(=O)c2ccccc2)c(=O)[nH]c1=O` (centres undefined) it is 90 °C; for `CC(C)(C)OC(=O)NC(Cc1ccccc1)C(O)CNCC(O)C(Cc1ccc(OCCN2CCOCC2=O)cc1)NC(=O)OC(C)(C)C` (centres undefined) it is 108 to 111 °C.
`Fc1ccc(-c2ncn(CCN3CCOCC3)c2-c2ccncc2)cc1` came in with a melting point of 114 to 115 °C.
Then `CCc1nc2c(cnn2CC)c(NC2CCOCC2)c1CNC(=O)c1cccc(C(=O)NCc2ccc(OC)c(-c3cccc(CN4CCN(C)CC4)c3)c2)c1`, with 117 to 119 °C; and `CCN(CC)C(=O)n1nc(Oc2ncc(C(F)(F)F)cc2Cl)cc1C(F)(F)F`, with 58 to 60 °C.
Then `O=C1C(C2=NCCS2)c2ccccc2N1C1=NCCS1` (centres undefined), with 204 to 205 °C; and `CSC(=N)N(c1ccccc1)c1ccccc1`, with 104 to 106 °C; and `CCOC(=O)c1cn(N(C)C=O)c2c(F)c(N3CCN(C)CC3)c(F)cc2c1=O`, with 180 °C.
In turn, `O=C(Oc1ccc(Oc2ccccc2)cc1)N1CCC(O)CC1` displayed a melting point of 130 to 133 °C.
Then `C#CCn1c(C(F)(F)F)c(CO)oc1=O`, with 64 °C; and `NC(=O)OCCn1cc(C(=O)O)c(=O)c2cc(F)c(N3CCNCC3)c(F)c21`, with 204 to 206 °C.
The figure for `CCCCCCCCCCCCCCCC(=O)OCC(F)(F)Cn1nc(C)c(-c2ccc3c(c2)NC(=O)CO3)c1-c1ccc(F)cc1` is 106 °C; for `CCCCC1OC(=O)c2cc(N)ccc21` (centres undefined) it is 129 to 131 °C; for `CCOC(=O)/C=C/c1nc(-c2ccccc2)oc1COc1ccc(OCc2nc(-c3ccccc3)oc2C)cc1` it is 107 to 108 °C.
Take `O=C(O)CC1CCC(N2CCN(c3ccncc3)CC2)CC1` (centres undefined): the melting point is 225 to 227 °C.
The figure for `COc1cc2c(cc1OCc1ccccc1)C(Sc1ccccc1)(C(N)=CC#N)C2` (centres undefined) is 122 to 125 °C.
`COc1cc(C(=O)O)ccc1Cn1cc(CC(C)C(=O)N(C)C)c2ccc(C(=O)NCC3CCCC3)cc21` (centres undefined) came in with a melting point of 120 to 122 °C.
`COc1cc(OC)cc(C2(Cl)C(C)(C)C2(C)C)c1`: the melting point is 119 to 121 °C.
Then `COC(=O)c1ccc2oc(=S)[nH]c2c1`, with 218 to 221 °C; and `Nc1cc2c(cc1CCN1CCN(c3cccc(C(F)(F)F)c3)CC1)OCO2`, with 88 °C.
For `COc1cccc(-c2nc3ccc(OC)cc3s2)c1`, the melting point lay within 155 to 157 °C.
The figure for `CN1CCN(Cc2c(-c3ccc4sc(=O)n(C)c4c3)nc3ccccn23)CC1` is 191 to 193 °C; for `CCC1CSC(CCc2ccccc2)(Cn2ccnc2)S1` (centres undefined) it is 115 to 118 °C.
Then `CC(C)(C)[N+]([O-])=Cc1c[nH]c(-c2ccccc2)n1`, with 209 to 210 °C; and `COC(=O)C1(C(=O)OC)CCC1(C(=O)OC)C(=O)OC`, with 80.5 to 81 °C.
On to `CN(C)CCOc1ccc(-c2n[nH]c3ncccc23)cc1`, for which the melting point lay within 132 to 134 °C.
Then `O=C1CN=C(c2ccccc2)c2cc(NO)ccc2N1`, with 186 to 187 °C.
Then `O=Cc1cc2n(n1)-c1ccc(Cl)cc1C(c1ccccc1)=NC2`, with 170 to 172 °C; and `N=C(N)Nc1nc(-c2cccc([N+](=O)[O-])c2)no1`, with 290 to 291 °C.
The figure for `CN1CCN(CCc2[nH]c(=O)[nH]c2-c2ccc(F)cc2)CC1` is 237 to 239 °C; for `CC(=O)Nc1cc(-n2c(=O)cc(C(F)(F)F)[nH]c2=O)c(F)cc1Cl` it is 264 to 266 °C.
Take `Cc1ccc(CC(=O)c2sccc2S(=O)(=O)Nc2onc(C)c2C)cc1`: the melting point fell in the range of 95 to 100 °C.
Then `COc1ccc(Cn2cnc3c(=O)[nH]c(N)nc32)cc1`, with over 300 °C.
Then `CNC(=O)CC1CN=C(c2cc3cc(Oc4ccc(S(C)(=O)=O)cn4)cc(OC(C)C)c3[nH]2)S1` (centres undefined), with 190 to 192 °C; and `Cc1oc(-c2ccc(Cl)cc2)cc1C(=O)NCc1ccc2cc(O)ccc2c1`, with 202 to 204 °C.
Then `N#Cc1c(N2CCc3ccccc3CC2)ncn(CCO)c1=O`, with 167 to 171 °C; and `IC(I)=C(I)Cn1nnc(-c2ccccc2)n1`, with 188 °C; and `COC(=O)NC(=N)C(C)C`, with 127 to 130 °C.
Regarding `COc1c(N2CCC(N)C(C)(C)C2)c(F)c(N)c2c(=O)c(C(=O)O)cn(C3CC3)c12` (centres undefined), the melting point turned out to be 205 °C.
The figure for `CS(=O)(=O)c1ccc(-c2nn3c(-c4ccccc4)coc3c2-c2ccc(F)cc2)cc1` is 151 to 154 °C; for `Nc1nc(-c2ccc(Cl)cc2F)nc(C(=O)O)c1Cl` it is 194 to 196 °C.
The figure for `CN1c2cscc2C(=O)N(CCN2CCCC2)c2ccccc21` is 139 to 141 °C; for `O=C1NC(=O)c2ccc(-c3ccc(F)cc3)cc2/C1=C/Nc1ccc(CN2CCCC2)cc1` it is 152 to 153 °C; for `O=C(SC[C@H](SC(=O)c1ccccc1)C(=O)N[C@@H](CO)C(=O)O)c1ccccc1` it is 147 to 150 °C.
Then `CC(C)Oc1cc(CCC(=O)NS(=O)(=O)Cc2ccccc2)n(Cc2ccc(Cl)cc2Cl)n1`, with 183 to 184 °C; and `CS(=O)(=O)N(N(CCCl)S(=O)(=O)c1ccccc1)S(C)(=O)=O`, with 114 to 115 °C.
Consider `CCCn1cc(-c2ccncc2)cc(N)c1=O`, for which the melting point lay in the range of 171 to 173 °C.
The figure for `Cn1c2ncccc2c(=O)n2nccc12` is 249 °C; for `C[C@H]1CCCC(C)(C)[C@@H]1[C@H](O)c1ccc(OC(F)(F)F)c(F)c1` it is 60.3 to 62.2 °C.

For orientation: melting point means the temperature, or range, at which the solid turns liquid.
